Results on 1 compound are retold here after patent US20070041915A1, “Use of a biguanide derivative for protecting skin against uvb radiation” (PHARMAMENS, priority 2003, published 2007).

One data set concerns Langerhans cells. Briefly: Protective activity against UVB-induced immunosuppressive photo effect (depletion of Langerhans cells) on survival-maintained human skin explants, anti-CD1a labelling. The data set is classed as cell-based. To be noted: histology and immunolabelling of Langerhans cells 24 hours after irradiation; preventive application. The procedure:
The purpose of this study is to evidence the protective activity of metformin against an immunosuppressive photo effect (depletion of Langerhans cells) induced by UVB radiation on a survival-maintained human skin model.
The immunosuppressive photo activity induced by UVB is, assessed by counting the number of Langerhans cells in a separated epidermis and in tissue sections after anti-CDla labelling.
27 skin explants were prepared and maintained in-survival in a culture medium. They were divided among 9 batches of three explants: three reference batches, three excipient batches and three ointment batches containing 1% metformin (formulation example 3).
3 batches (reference, excipient and ointment) were exposed to UVB radiation of 4 J/cm^2, three batches (reference, excipient and ointment) to UVB radiation of 6 J/cm^2 and the three last batches were placed in darkness during the time of irradiation.
Daily application of the ointment was 4 mg per explant for 3 days before irradiation.
Analysis of the reference and treated explants was performed 24 h after irradiation.
Anti-CDla immunolabelling of Langerhans cells was made in the separated epidermis and in tissue sections.

For data set [1] the following is noted: cited from earlier work.

With `CN(C)C(=N)N=C(N)N` [metformin], the “protective activity against UVB” value with Langerhans cells is given as “protective action”. Further, the toxicity entry in data set [1] (at hypoglycaemic doses) is on record as “absence of toxicity”. Moreover, in data set [1] (in vivo), the chronic toxicity result is “practically zero” and the tolerance entry is “good”.
